The source of these data is patent US7781590B2, “Piperidinylalkylcarbamate derivatives, methods for their preparation and the therapeutic use thereof as fatty acid amido hydrolase enzyme inhibitors” (Sanofi-Aventis, priority 2004, dated 2010).

Structures can show the parent of a compound that is named as a salt.

In the case of `CNC(=O)COC(=O)NCCC1CCN(Cc2ncc(-c3ccc(Cl)cc3)o2)CC1` [Compound 105, 2-(methylamino)-2-oxoethyl 2-(1-{[5-(4-chlorophenyl)-1,3-oxazol-2-yl]methyl}piperidin-4-yl)ethylcarbamate], the melting point (as a rule, the temperature of the solid-liquid transition) was 124 to 126 °C.

Molecule `CNC(=O)COC(=O)NCCC1CCN(Cc2ccc(Oc3ccc(Cl)c(F)c3)cc2)CC1` [Compound 28, 2-(methylamino)-2-oxoethyl 2-{1-[4-(4-chloro-3-fluorophenoxy)benzyl]piperidin-4-yl}ethylcarbamate] displayed a melting point of 109 to 111 °C.

For the molecule `CNC(=O)COC(=O)NCCC1CCN(CCc2cc(-c3ccc(Cl)cc3)no2)CC1` [Compound 120, 2-(methylamino)-2-oxoethyl 2-(1-{2-[3-(4-chlorophenyl)isoxazol-5-yl]ethyl}piperidin-4-yl)ethylcarbamate], the melting point lay in the range of 135 to 137 °C.

For the molecule `CCOc1ccc(CCN2CCC(CCNC(=O)OCC(=O)NC)CC2)cc1` [Compound 59, 2-(methylamino)-2-oxoethyl 2-(1-{2-[4-(ethyloxy)phenyl]ethyl}piperidin-4-yl)ethylcarbamate], the melting point lay in the range of 118 to 120 °C.

For `CNC(=O)COC(=O)NCCC1CCN(Cc2cc(F)ccc2Cl)CC1` [Compound 22, 2-(methylamino)-2-oxoethyl 2-[1-(2-chloro-5-fluorobenzyl)piperidin-4-yl]ethylcarbamate], the melting point was 102 to 104 °C.

The molecule `CNC(=O)COC(=O)NCCC1CCN(Cc2ccc(C(F)(F)F)cc2)CC1` [Compound 14, 2-(methylamino)-2-oxoethyl 2-(1-{[4-(trifluoromethyl)phenyl]methyl}piperidin-4-yl)ethylcarbamate] gave a melting point of 116 to 120 °C.

For `CNC(=O)COC(=O)NCC1CCN(CCc2ccc(F)cc2OC)CC1` [Compound 52], the melting point lay in the range of 126 to 128 °C.

With `CNC(=O)COC(=O)NCCC1CCN(CCc2ccc(F)cc2)CC1` [Compound 58, 2-(methylamino)-2-oxoethyl 2-{1-[2-(4-fluorophenyl)ethyl]piperidin-4-yl}ethylcarbamate], the melting point lay in the range of 122 to 124 °C.

As for `CNC(=O)COC(=O)NCCC1CCN(Cc2cccc3ccccc23)CC1` [Compound 29, 2-(methylamino)-2-oxoethyl 2-[1-(naphthalen-1-ylmethyl)piperidin-4-yl]ethylcarbamate], the melting point was 86 to 88 °C.

`CNC(=O)COC(=O)NCCC1CCN(Cc2ccc(Br)cc2)CC1` [Compound 12, 2-(methylamino)-2-oxoethyl 2-{1-[(4-bromophenyl)methyl]piperidin-4-yl}ethylcarbamate] yielded a melting point of 107 to 111 °C.

In turn, `CNC(=O)COC(=O)NCCC1CCN(Cc2ccccn2)CC1` [Compound 31, 2-(methylamino)-2-oxoethyl 2-[1-(pyridin-2-ylmethyl)piperidin-4-yl]ethylcarbamate] gave a melting point of 104 to 106 °C.

`CNC(=O)COC(=O)NCCC1CCN(Cc2cc(Cl)cc(Cl)c2)CC1` [Compound 21, 2-(methylamino)-2-oxoethyl 2-[1-(3,5-dichlorobenzyl)piperidin-4-yl]ethylcarbamate] yielded a melting point of 124 to 126 °C.

Consider `CNC(=O)COC(=O)NCCC1CCN(Cc2ccc(Cl)cc2Cl)CC1` [Compound 18, 2-(methylamino)-2-oxoethyl 2-[1-(2,4-dichlorobenzyl)piperidin-4-yl]ethylcarbamate], for which the melting point lay within 117 to 119 °C.

On to `CNC(=O)COC(=O)NCCC1CCN(Cc2nc(-c3ccc(C(F)(F)F)cc3)cs2)CC1` [Compound 106, 2-(methylamino)-2-oxoethyl 2-[1-({4-[4-(trifluoromethyl)phenyl]-1,3-thiazol-2-yl}methyl)piperidin-4-yl]ethylcarbamate], for which the melting point fell in the range of 161 to 163 °C.

In turn, `CNC(=O)COC(=O)NCCC1CCN(C(C)c2cccc(OC(F)(F)F)c2)CC1` (stereo not drawn) (as salt: HCl) [Compound 110, 2-(methylamino)-2-oxoethyl 2-(1-{1-[3-(trifluoromethoxy)phenyl]ethyl}piperidin-4-yl)ethylcarbamate] came in with a melting point of 169 to 171 °C.
